Measurements: PubChem BioAssay AID1914 (Broad Institute, 2009)
“And” between values parts separate entries of the source, which are not always exact repeats. Identical values can stand only once. Results filed as inconclusive are left out. The source made the active and inactive calls.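 The calls were made as follows: active = Compounds whose fitted IC50 for cell-normalized streptokinase activity falls within a set log distance above the top dose; inactive = IC50 further above the top dose than that limit.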

What follows are compounds tested against S. pyogenes M1 GAS, streptokinase activity/viability, OD405, 6 h (assay: S. pyogenes streptokinase expression inhibitors, potency, dose response, plasminogen activation absorbance, OD405 (AID 1914)).

Row | SMILES | IC50
1 | Cc1ccc(C(O)(C(=O)NNc2ccc3ccccc3n2)c2ccc(C)cc2)cc1 | > 15 µM (inactive)
2 | CN(C)c1ccnc2c[cH-]cc12.[Fe].c1ccc(-[c-]2[c-](-c3ccccc3)[c-](-c3ccccc3)[c-](-c3ccccc3)[c-]2-c2ccccc2)cc1 (stereo unspecified) | 2.11 µM and 2.6 µM
3 | Cc1ccc(C[n+]2c(-c3ccc(C)cc3)cc(-c3ccc(C)cc3)cc2-c2ccc(C)cc2)cc1 | 3.61 µM
4 | CCCCCCCCCCCCCCCCn1cc[n+](C)c1 | > 15 µM (inactive)
5 | CCN1/C(=C\C=C\C2=[N+](CC)c3ccccc3C2(C)C)C(C)(C)c2ccccc21 | 15.6 µM
6 | CNC(CC(C)C)C(=O)NC1C(=O)NC(CC(N)=O)C(=O)NC2C(=O)NC3C(=O)NC(C(=O)NC(C(=O)O)c4cc(O)cc(O)c4-c4cc3ccc4O)C(O)c3ccc(c(Cl)c3)Oc3cc2cc(c3OC2OC(CO)C(O)C(O)C2OC2CC(C)(N)C(O)C(C)O2)Oc2ccc(cc2Cl)C1O (stereo unspecified) | > 15 µM (inactive)
